Values quoted from earlier work in patent US11202786B2, “Synthetic bile acid compositions and methods” (ALLERGAN SALES, LLC, priority 2007, dated 2021).

Legend:
[1] = neutral pH
albumin = albumin (Homo sapiens, UniProt P02768); details: 0.4 mg/mL deoxycholate (comparable to the fasting state), in the presence of 26 mg/mL of albumin
Chain of albumin (P02768 25-609): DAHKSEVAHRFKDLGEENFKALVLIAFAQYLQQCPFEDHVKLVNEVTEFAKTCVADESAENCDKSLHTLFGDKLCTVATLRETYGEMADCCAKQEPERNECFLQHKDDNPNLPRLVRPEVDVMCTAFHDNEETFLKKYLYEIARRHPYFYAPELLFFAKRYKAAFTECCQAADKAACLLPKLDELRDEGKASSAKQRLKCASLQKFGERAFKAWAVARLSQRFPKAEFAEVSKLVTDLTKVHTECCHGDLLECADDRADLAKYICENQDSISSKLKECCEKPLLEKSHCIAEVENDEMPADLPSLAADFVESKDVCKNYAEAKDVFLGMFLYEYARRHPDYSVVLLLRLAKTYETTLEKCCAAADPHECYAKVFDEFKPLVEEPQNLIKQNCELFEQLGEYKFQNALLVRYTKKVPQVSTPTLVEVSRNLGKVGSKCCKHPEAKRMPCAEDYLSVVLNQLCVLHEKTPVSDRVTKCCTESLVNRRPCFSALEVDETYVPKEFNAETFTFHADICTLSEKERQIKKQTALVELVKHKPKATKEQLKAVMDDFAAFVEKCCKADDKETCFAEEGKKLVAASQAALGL

C[C@H](CCC(=O)[O-])[C@H]1CC[C@H]2[C@@H]3CC[C@@H]4C[C@H](O)CC[C@]4(C)[C@H]3C[C@H](O)[C@]12C.[Na+] [Deoxycholate, sodium deoxycholate]
solubility in acetone (acetone, compared with alcohol): even less soluble | soluble in water (water): 333 mg/mL | critical micelle concentration [1]: approximately 2.4 mg/mL | bound to albumin (albumin): 98%
